Measured values reported in patent US20180057505A1, “BICYCLIC HETEROARYL COMPOUNDS USEFUL AS INHIBITORS OF THE PAR-2 SIGNALING PATHWAY” (VERTEX PHARMACEUTICALS INCORPORATED, priority 2015, published 2018).

Assays:
Assay type in all cases: cell-based
PAR2 (HT-29 cells) [1] = target: T1, PAR2 (HT-29 cells) (Homo sapiens, UniProt P55085); test: Ca FLIPR TETRA assay, ANTAGONIST mode, activator 8 μM SLIGKV; settings: HT-29 cells, activator 8 μM SLIGKV
T1 construct: host or cells: HT-29
T1 sequence (P55085 26-397): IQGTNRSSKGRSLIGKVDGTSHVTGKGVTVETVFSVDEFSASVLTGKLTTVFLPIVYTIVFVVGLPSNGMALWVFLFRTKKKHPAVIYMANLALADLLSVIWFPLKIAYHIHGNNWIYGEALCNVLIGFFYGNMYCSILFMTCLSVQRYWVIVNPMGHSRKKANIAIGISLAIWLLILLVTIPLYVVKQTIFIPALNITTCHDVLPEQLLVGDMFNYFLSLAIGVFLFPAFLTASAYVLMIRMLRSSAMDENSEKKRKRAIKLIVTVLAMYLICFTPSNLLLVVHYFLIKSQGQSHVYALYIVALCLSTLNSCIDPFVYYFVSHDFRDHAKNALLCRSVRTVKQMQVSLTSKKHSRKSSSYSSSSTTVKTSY
Method: (§1) Protocol for Testing PAR2 Compounds in ANTAGONIST Mode Using the Ca FLIPR^TETRA Assay (384 Well).
(§2) 23000 HT-29 cells (ATCC# HTB-38) were plated in 384-well black, transparent-flat bottom plates and incubated in 25 uL of 1% FBS/McCoy's media ON at 37° C. under an atmosphere of 5% CO2. The following day, 25 uL FLIPR calcium 5 Molecular Devices assay reagent (Cat: R-8186) was added. Plates were incubated at 37° C. and r. t. for 45 min and 15 min, respectively. Compounds dilutions were prepared in 100% DMSO using a Biomek FX and diluted 20-fold in HBSS and then 5.5 uL was added directly to the cells by the FLIPR^TETRA (10× dilution) using FLIPR Tetra Pipette tips, black, non-sterile, 384 Molecular Devices (Cat: 9000-0764).
(§3) A first read was performed to determine whether the test compounds on their own can activate Ca^2+ responses. The cells were incubated with the compounds for 30 min at r. t. and then read in ANTAGONIST mode in the same plate by stimulating with 6.2 uL of a fixed concentration of the activator: final concentrations 8 μM SLIGKV, 1 U/mL Thrombin, 3.1 U/mL trypsin, or 0.6 μM UTP.

[2] = system: Thrombin-stimulated Ca2+ response in HT-29 cells; test: Ca FLIPR TETRA assay, ANTAGONIST mode, activator 1 U/mL Thrombin; settings: HT-29 cells, activator 1 U/mL Thrombin
Method: as §1, §2, §3

PAR2 (HT-29 cells) [3] = target: T1, PAR2 (HT-29 cells); test: Ca FLIPR TETRA assay, ANTAGONIST mode, activator 3.1 U/mL trypsin; settings: HT-29 cells, activator 3.1 U/mL trypsin
Method: as §1, §2, §3

[4] = system: UTP-stimulated Ca2+ response in HT-29 cells; test: Ca FLIPR TETRA assay, ANTAGONIST mode, activator 0.6 μM UTP; settings: HT-29 cells, activator 0.6 μM UTP
Method: as §1, §2, §3

[5] = maximal antagonist concentration per Method (A: 0.1, 1 or 2 μM; B: 50 μM)
[6] = Method A: maximal concentration of antagonist 0.1, 1 or 2 μM

Row | Structure (SMILES) | IC50 (PAR2 (HT-29 cells) [1]; [5]) [µM] | IC50 ([2]; Homo sapiens) [µM] | IC50 (PAR2 (HT-29 cells) [3]; [5]) [µM] | IC50 ([4]; Homo sapiens) [µM] | IC50 (PAR2 (HT-29 cells) [1]; [6]) [µM] | IC50 (PAR2 (HT-29 cells) [3]; [6]) [µM] | IC50 [2] [µM] | IC50 [4] [µM]
1 | CC(C)c1cc(-c2ccc(F)cc2)nc2cc(C(=O)N3CCN(C(=O)C4(O)CCC4)C[C@H]3C)oc12 [Example I-97] | 4.1 | 18 | 5.1 | 15 |  |  |  | 
2 | Cc1cncc(N2CCN(C(=O)c3cc4nc(-c5ccc(Cl)cc5)cc(C(C)(C)C)c4o3)C(C)(C)C2)n1 [Example I-387] |  | > 2 |  | > 2 | 0.012 | 0.01 |  | 
3 | CC1(c2cc(-c3ccc(F)cc3)nc3cc(C(=O)N4CCN(C(=O)C5CCCCC5)CC4(C)C)oc23)CC1 [Example I-42] | 0.0012 | > 50 | 0.0012 | > 50 |  |  |  | 
4 | CO[C@H](C)C(=O)N1CCN(C(=O)c2cc3nc(-c4ccc(F)cc4)cc(C4(C)CC4)c3o2)C(C)(C)C1 [Example I-29] | 0.023 | 19 | 0.032 | 16 |  |  |  | 
5 | CC(C)(C)c1cc(-c2ccc(F)cc2)nc2cc(C(=O)N3CCN(C(=O)c4ccc(C(=O)O)cc4)CC3(C)C)oc12 [Example I-192] | 0.014 | > 1 | 0.013 | > 1 |  |  |  | 
6 | CC(C)c1cc(-c2ccc(F)cc2)nc2cc(C(=O)N3CCN(C(=O)CC#N)CC3(C)C)oc12 [Example I-9] | 0.09 | 9.6 | 0.083 | 4.5 |  |  |  | 
7 | CC(C)(C)OC(=O)N1CCN(C(=O)c2cc3nc(-c4ccc(F)cc4)cc(Cl)c3o2)C(C)(C)C1 [Example I-2] | 0.022 | > 50 | 0.029 | > 50 |  |  |  | 
8 | Cc1cnc(N2CCN(C(=O)c3cc4nc(-c5ccc(Cl)c(F)c5)cc(C(C)(C)C)c4o3)C(C)(C)C2=O)nc1 [Example I-371] |  |  |  |  | 0.0052 | 0.0052 | > 2 | > 2
9 | CC(C)c1cc(-c2ccc(F)cc2)nc2cc(C(=O)N3CCN(S(=O)(=O)c4ccn(C)n4)CC3(C)C)oc12 [Example I-148] | 0.046 | > 1 | 0.036 | > 1 |  |  |  | 
10 | CC(C)c1cc(-c2ccc(F)cc2)nc2cc(C(=O)N3CCN(C(=O)c4ccnn4C)CC3(C)C)oc12 [Example I-139] | 0.024 | > 1 | 0.033 | > 1 |  |  |  | 
11 | Cn1cnnc1N1CCN(C(=O)c2cc3nc(-c4ccc(Cl)c(F)c4)cc(C(C)(C)C)c3o2)C(C)(C)C1 [Example I-318] |  | > 2 |  | > 2 | 0.0028 | 0.0046 |  | 
12 | CC(C)(C)c1cc(-c2ccc(Cl)c(F)c2)nc2cc(C(=O)N3CCNC(=O)C3(C)C)oc12 [Example I-176] | 0.0048 |  | 0.005 |  |  |  |  | 
13 | Cc1ccc(C(=O)O)c(N2CCN(C(=O)c3cc4nc(-c5ccc(Cl)c(F)c5)cc(C(C)(C)C)c4o3)C(C)(C)C2)n1 [Example I-352] |  | > 2 |  | 2 | 0.0021 | 0.0031 |  | 
14 | CC(C)C[C@@H](O)C(=O)N1CCN(C(=O)c2cc3nc(-c4ccc(F)cc4)cc(C4(C)CC4)c3o2)C[C@@H]1C [Example I-113] | 0.011 | 17 | 0.002 | 12 |  |  |  | 
15 | CC(C)(C)c1cc(-c2ccc(Cl)cc2)nc2cc(C(=O)N3CCN(c4cnccn4)CC3(C)C)oc12 [Example I-368] |  |  |  |  | 0.012 | 0.0095 |  | 
16 | Cc1cc(N2CCN(C(=O)c3cc4nc(-c5ccc(Cl)cc5)cc(C(C)(C)C)c4o3)C(C)(C)C2)ncn1 [Example I-390] |  | > 2 |  | > 2 | 0.019 | 0.0125 |  | 
17 | CC(C)(C)c1cc(-c2ccc(Cl)cc2)nc2cc(C(=O)N3CCN(c4cccnc4)C(=O)C3(C)C)oc12 [Example I-326] |  | > 2 |  | > 2 | 0.023 | 0.038 |  | 
18 | CC(C)(C)c1cc(-c2ccc(Cl)c(F)c2)nc2cc(C(=O)N3CCN(c4nc(C(=O)O)co4)CC3(C)C)oc12 [Example I-290] | 0.0032 |  | 0.0061 |  |  |  |  | 
19 | CC(C)(C)c1cc(-c2ccc(Cl)cc2)nc2cc(C(=O)N3CCNC(=O)C3(C)C)oc12 [Example I-157] | 0.0092 |  | 0.0079 |  |  |  |  | 

Results, then the compound that gave them:

Row | IC50 (PAR2 (HT-29 cells) [1]; [5]) [µM] | IC50 ([2]; Homo sapiens) [µM] | IC50 (PAR2 (HT-29 cells) [3]; [5]) [µM] | IC50 ([4]; Homo sapiens) [µM] | IC50 (PAR2 (HT-29 cells) [1]; [6]) [µM] | IC50 (PAR2 (HT-29 cells) [3]; [6]) [µM] | IC50 [2] [µM] | IC50 [4] [µM] | Structure (SMILES)
20 | 0.084 | > 2 | 0.16 | > 2 |  |  |  |  | CC(C)(C)c1cc(C2CCC(F)(F)CC2)nc2cc(C(=O)N3CCN(C(=O)c4ncccn4)CC3(C)C)oc12 [Example I-231]
21 |  | > 2 |  | > 2 | 0.0016 | 0.0038 |  |  | CC(C)(C)c1cc(N2CCC3(CC2)CC3)nc2cc(C(=O)N3CCN(C(=O)[C@H]4C[C@@](C)(O)C4)CC3(C)C)oc12 [Example I-435]
22 | 0.003 | > 1 | 0.006 | > 1 |  |  |  |  | COC(=O)C1CC(C(=O)N2CCN(C(=O)c3cc4nc(-c5ccc(F)cc5)cc(C(C)(C)C)c4o3)C(C)(C)C2)C1 (centres unmarked) [Example I-188]
23 |  | > 2 |  | > 2 | 0.023 | 0.021 |  |  | CC(C)(C)c1cc(-c2ccc(Cl)c(F)c2)nc2cc(C(=O)N3CCN(C(=O)[C@@H]4CCCC[C@H]4C(=O)O)CC3(C)C)oc12 [Example I-506]
24 | 0.00031 | 19 | 0.00064 | 30 |  |  |  |  | CC1(c2cc(-c3ccc(F)cc3)nc3cc(C(=O)N4CCN(C(=O)C5CC(O)(C(F)(F)F)C5)CC4(C)C)oc23)CC1 (centres unmarked) [Example I-58]
25 | 0.0029 | > 40 | 0.0032 | 36 |  |  |  |  | CCC(C)C(=O)N1CCN(C(=O)c2cc3nc(-c4ccc(F)cc4)cc(C4(C)CC4)c3o2)C(C)(C)C1 (centres unmarked) [Example I-44]
26 | 0.011 | 0.52 | 0.013 | 0.76 |  |  |  |  | COC(=O)C12CC(C(=O)N3CCN(C(=O)c4cc5nc(-c6ccc(F)cc6)cc(C(C)(C)C)c5o4)C(C)(C)C3)(C1)C2 [Example I-190]
27 |  | > 2 |  | > 2 | 0.0003 | 0.0007 |  |  | CC(C)(C)c1cc(-c2ccc(Cl)c(F)c2)nc2cc(C(=O)N3CCN(C(=O)[C@@H]4CCC[C@H](C(=O)O)C4)CC3(C)C)oc12 [Example I-375]
28 |  | > 2 |  | > 2 | 0.0085 | 0.016 |  |  | CC1(C)CCC(c2cc(C(C)(C)C)c3oc(C(=O)N4CCN(c5ccnc(C(=O)O)n5)CC4(C)C)cc3n2)CC1 [Example I-414]
29 | 0.017 | > 1 | 0.027 | > 1 |  |  |  |  | CC(C)(C)c1cc(-c2ccc(F)cc2)nc2cc(C(=O)N3CCN(C(=O)C4(C(N)=O)CC4)CC3(C)C)oc12 [Example I-199]
30 | 0.024 | > 2 | 0.028 | > 2 |  |  |  |  | CC(C)(C)c1cc(C2CCC(F)(F)CC2)nc2cc(C(=O)N3CCN(C(=O)[C@H]4CC[C@@H](C(=O)O)CC4)CC3(C)C)oc12 [Example I-229]
31 | 0.21 |  | 0.18 |  |  |  | > 2 | > 2 | CC(C)(C)c1cc(-c2ccc(Cl)c(F)c2)nc2cc(C(=O)N3CCN(C(=O)c4cccnc4)CC3(C)C)oc12 [Example I-257]
32 | 0.034 | 14 | 0.049 | 11 |  |  |  |  | CCC(C)(O)C(=O)N1CCN(C(=O)c2cc3nc(-c4ccc(F)cc4)cc(C4(C)CC4)c3o2)C(C)(C)C1 (centres unmarked) [Example I-35]
33 |  | > 2 |  | > 2 | 0.025 | 0.016 |  |  | CC(C)(C)c1cc(-c2ccc(Cl)cc2)nc2cc(C(=O)N3CCN(c4ncccn4)CC3(C)C)oc12 [Example I-404]
34 |  | > 2 |  | > 2 | 0.0004 | 0.0006 |  |  | Cc1nc(N2CCN(C(=O)c3cc4nc(C5CCC(C)(C)CC5)cc(C(C)(C)C)c4o3)C(C)(C)C2)ccc1C(=O)O [Example I-496]
35 |  |  |  |  | 0.0013 | 0.0011 | > 2 |  | CC(CC(=O)N1CCN(C(=O)c2cc3nc(-c4ccc(Cl)c(F)c4)cc(C(C)(C)C)c3o2)C(C)(C)C1)C(=O)O (single isomer, unassigned) [Example I-514]
